Laboratory results reported in PubChem BioAssay (NCI).
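Where inhibition never reached the appropriate level, the endpoint shown equals the highest concentration tested. Otherwise, values were interpolated linearly from a five-concentration, 48-hour dose response in 96-well plates. GI50 is the concentration that inhibits growth by half. TGI marks complete inhibition of growth.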

What was measured:
Assay in all cases: DTP human tumour cell line panel, 48 h
[1] = tested on: SK-MEL-28 melanoma
[2] = tested on: SNB-75 CNS
[3] = tested on: HCT-15 colon
[4] = tested on: 786-0 renal
[5] = tested on: HCT-116 colon
[6] = tested on: OVCAR-8 ovarian
[7] = tested on: CAKI-1 renal
[8] = tested on: RPMI-8226 leukemia
[9] = tested on: LOX IMVI melanoma

| Compound | TGI [1] [µM] | TGI [2] [µM] | TGI [3] [µM] | TGI [4] [µM] | TGI [5] [µM] | TGI [6] [µM] | TGI [7] [µM] | TGI [8] [µM] | TGI [9] [µM] | GI50 [1] [µM] | GI50 [8] [µM] | GI50 [2] [µM] | GI50 [9] [µM] | GI50 [3] [µM] | GI50 [4] [µM] | GI50 [5] [µM] | GI50 [6] [µM] | GI50 [7] [µM] |
| --- | --- | --- | --- | --- | --- | --- | --- | --- | --- | --- | --- | --- | --- | --- | --- | --- | --- | --- |
| NC(=S)c1cccc(C2Nc3ccccc3O2)c1 (stereo not given) | > 100 | > 100 | > 100 | > 100 | > 100 | > 100 | > 100 | – | – | – | – | – | – | – | – | – | – | – |
| CC(NC1CCCC[C@@H]1O)c1ccccc1 (stereo not given in full) | > 100 | > 100 | > 100 | > 100 | > 100 | > 100 | > 100 | > 100 | > 100 | – | – | – | – | – | – | – | – | – |
| COc1c2c(c(O)c3c4c(c(C)cc13)C1OC3(C(OC)OC5CC(C)(O)C(OC6CC(C)(O)C(O)C(C)O6)C(C)O5)OC1C(OC)(O4)C31CO1)C(=O)C(O)CC2OC1CC(C)(O)C(OC(C)=O)C(C)O1 (stereo not given) | – | < 0.01 | 1.58 | < 0.0115 | 5.74 | – | 2.71 | < 0.01 | – | – | – | – | – | – | – | – | – | – |
| O=c1[nH]c(=S)[nH]c2c1CCCN2 | > 100 | > 100 | > 100 | > 100 | > 100 | > 100 | > 100 | > 100 | > 100 | – | – | – | – | – | – | – | – | – |
| S=C(Nc1ccc(-c2nc3ccccc3s2)cc1)Nc1ccc(-c2nc3ccccc3s2)cc1 | 54.8 | 36.4 | 35.7 | 83.2 | 33.9 | 49.4 | 48.1 | > 100 | 30.5 | 22.3 | 34.6 | 10.4 | 15.2 | 15.4 | 28 | 16.6 | 19.9 | 13.5 |
| NCCOCCOCC(=O)O | > 100 | > 100 | > 100 | > 100 | > 100 | > 100 | > 100 | > 100 | – | – | – | – | – | – | – | – | – | – |
| Cn1cc(-c2csc(-c3ccc(Cl)cc3)n2)c2cccnc21 | 29.4 | 54.3 | 29.3 | 32.4 | 25.4 | 66.6 | 25.6 | 78.6 | 24.9 | 15.2 | 12.3 | 20 | 12.4 | 12.2 | 16.3 | 12.8 | 22.8 | 6.99 |
| O=C(NCCCN1CCN(CCCNC(=O)Nc2cc(Cl)ccc2Cl)CC1)Nc1cc(Cl)ccc1Cl | > 100 | 82 | > 100 | > 100 | > 100 | > 100 | > 100 | > 100 | > 100 | – | – | – | – | – | – | – | – | – |
| COC(=O)c1c(C(=O)O)c(-c2ccccc2)c(-c2ccccc2)c(-c2ccccc2)c1-c1ccccc1 | > 100 | > 100 | > 100 | > 100 | > 100 | > 100 | > 100 | > 100 | > 100 | 93.4 | 88.8 | 47.6 | > 100 | > 100 | > 100 | 77.9 | > 100 | > 100 |
| O=C(O)C1CC2C=CCC(C2)C1 (stereo not given) | > 100 | > 100 | > 100 | > 100 | > 100 | > 100 | > 100 | > 100 | > 100 | – | – | – | – | – | – | – | – | – |
| COc1cc(C=NCC(=O)CSC(c2ccccc2)c2ccccc2)ccc1O | 27.6 | 25.9 | 30.8 | 28.2 | 21 | 25.1 | 43.2 | 25.1 | 23.5 | 14.4 | 6.26 | 13 | 10.5 | 13.8 | 14.9 | 8.69 | 12.6 | 16.6 |
| O=c1cc(-c2ccccc2)oc2cc(OCCCCCCCCCCOc3ccc4c(=O)cc(-c5ccccc5)oc4c3)ccc12 | > 100 | > 100 | > 100 | > 100 | > 100 | > 100 | > 100 | > 100 | – | – | – | – | – | – | – | – | – | – |
| O=C1c2ccccc2-c2c1c1ccccc1c(=O)n2CCNCCNCCNCCNCCn1c2c(c3ccccc3c1=O)C(=O)c1ccccc1-2 | > 100 | – | 2.56 | 2.19 | – | 2.69 | 2.93 | 0.187 | 0.0703 | 1.95 | 0.0178 | – | 0.0182 | 0.568 | 0.102 | 0.133 | 0.172 | 0.26 |
| COc1cc(N)c(Cl)cc1C(=O)N[C@@H]1CCN(CCCOc2ccc(F)cc2)C[C@@H]1OC | > 100 | > 100 | > 100 | > 100 | > 100 | > 100 | > 100 | – | > 100 | > 100 | – | > 100 | 27 | 23.6 | 55.5 | 41.8 | > 100 | > 100 |
| C[C@@H]1CC2(C[C@@H](C)C3[C@@H](CC4(C)CCCC5C6=CC(O)(CC[C@]34C)OC6=CC(=O)OC5(C)C)O2)OC1=O (stereo not given in full) | > 100 | > 100 | > 100 | > 100 | > 100 | – | – | > 100 | > 100 | – | – | – | – | – | – | – | – | – |
